Measurements published in patent publication US20010051636A1, “Combination treatment for inhibiting bone loss” (priority 1994, published 2001).
Marks after values point to notes of the source that are not given here.

Experiments:
Assay type in all cases: in vivo
[1] = system: ovariectomized (ovex) rats; experiment: 5-week ovex rat model of post-menopausal osteoporosis: femur density by X-ray grey scale image analysis; conditions: for anti-resorptive activity (in words): 0.1 mg/kg, each compound separately; for RANGE 0-60 (relative density of bone, femur X-ray grey scale): Table 3
Procedure: In the following, a model of post-menopausal osteoporosis was used in which effects of different treatments upon femur density were determined.
Seventy-five day old female Sprague Dawley rats (weight range of 225 to 275 g) were obtained from Charles River Laboratories (Portage, Mich.). They were housed in groups of 3 and had ad libitum access to food (calcium content approximately 1%) and water. Room temperature was maintained at 22.2°±1.7° C. with a minimum relative humidity of 40%. The photoperiod in the room was 12 hours light and 12 hours dark.
One week after arrival, the rats underwent bilateral ovariectomy under anesthesia (44 mg/kg Ketamine and 5 mg/kg Xylazine (Butler, Indianapolis, Ind.) administered intramuscularly). Treatment with vehicle or the indicated compound was initiated either on the day of surgery following recovery from anesthesia or 35 days following the surgery.
Oral dosage was by gavage in 0.5 mL of 1% carboxymethylcellulose (CMC).
(§1) Body weight was determined at the time of surgery and weekly during the study, and the dosage was adjusted with changes in body weight. Vehicle-treated ovariectomized (ovex) rats and non-ovariectomized (intact) rats were evaluated in parallel with each experimental group to serve as negative and positive controls.
(§2) The rats were treated daily for 35 days (6 rats per treatment group) and sacrificed by decapitation on the 36th day. […] At the time of sacrifice, the uteri were removed, dissected free of extraneous tissue, and the fluid contents were expelled before determination of wet weight in order to confirm estrogen deficiency associated with complete ovariectomy. […] The uteri were then placed in 10% neutral buffered formalin to allow for subsequent histological analysis.
The right femurs are excised and scanned at the distal metaphysis proximal from the growth plate region by grey scale image analysis of digitalized X-ray generation on a Nicolet NXR-1200 real time X-ray imaging system.

[2] = Body weight change in the ovex rat study BBA-9311
Procedure: as §1

[3] = system: ovariectomized (ovex) rats; experiment: Uterine wet weight in the ovex rat study BBA-9311
Procedure: as §2

[4] = Table 1, 1 mg/kg PO CDX, 47KV/4.5C, 35 days

SMILES | anti-resorptive activity (in words) [1] | Ave BW Chg ([2]; Table 4 BBA-9311, 1 mg/kg) | Ave BW Chg ([2]; Table 4 BBA-9311, .1 mg/kg) | Ave Ut Wt ([3]; Table 4 BBA-9311, 1 mg/kg) | Ave Ut Wt ([3]; Table 4 BBA-9311, .1 mg/kg) | RANGE 0-50 (relative density of bone, femur X-ray grey scale) [1, 4] | further results
NCCCC(O)(P(=O)(O)O)P(=O)(O)O [ALN, Alendronate] | inactive | 106.000 | 102.167 | 108.667 | 100.833 | – | –
C#C[C@]1(O)CC[C@H]2[C@@H]3CCc4cc(O)ccc4[C@H]3CC[C@@]21C [EE2, ethynylestradiol] | – | – | – | – | – | – | RANGE 0-50 (relative density of bone, femur X-ray grey scale) ([1]; Table 1, 100 μg/kg PO CDX): 51.29*; RANGE 0-50 (relative density of bone, femur X-ray grey scale) ([1]; Table 2, 30 μg/kg PO CDX): 50.87; RANGE 0-50 (relative density of bone, femur X-ray grey scale) ([1]; Table 2, 100 μg/kg PO CDX): 61.09*; RANGE 0-60 (relative density of bone, femur X-ray grey scale) ([1]; 100 μg/kg PO CDX): 62.88*; Ave BW Chg ([2]; Table 4, 100 μg/kg): 49.000; Ave Ut Wt ([3]; Table 4, 100 μg/kg): 399.000
CC(=O)O[C@]1(C(C)=O)CC[C@H]2[C@@H]3C[C@H](C)C4=CC(=O)CC[C@]4(C)[C@H]3CC[C@@]21C [Provera] | – | – | – | – | – | 30.10 | protection from bone loss (in words) ([1]; 10 mg/kg, by itself): protective effect; RANGE 0-50 (relative density of bone, femur X-ray grey scale) ([1]; Table 1, 10 mgmg/kg PO CDX, 47KV/4.5C, 35 days): 64.16*
Cl.O=C(c1ccc(OCCN2CCCCC2)cc1)c1c(-c2ccc(O)cc2)sc2cc(O)ccc12 [RAL, [6-hydroxy-2-(4-hydroxyphenyl)benzo[b]thien-3-yl][4-[2-(1-piperidinyl)ethoxy]phenyl]methanone hydrochloride] | inactive | 49.667 | 75.833 | 166.000 | 157.667 | 57.67* | RANGE 0-50 (relative density of bone, femur X-ray grey scale) ([1]; Table 2, 1 mg/kg PO CDX): 80.98*; RANGE 0-60 (relative density of bone, femur X-ray grey scale) ([1]; 0.1 mg/kg PO CDX, 47KV/4.5C): 36.76; RANGE 0-60 (relative density of bone, femur X-ray grey scale) ([1]; 1 mg/kg PO CDX): 40.37
